Laboratory results taken from article PMC7403315, “Cyclic peptide FXII inhibitor provides safe anticoagulation in a thrombosis model and in artificial lungs” (Nature Communications, 2020).
Several values for one entry are separate records, joined by “and”; a condition that tells them apart may be missing. Identical values can stand only once. Like-named read-outs stand apart in the source and are kept apart here. Each block holds one molecule with its values, some of them ahead of it. Residues, ends and D or L forms follow the SMILES beside them.

Molecular target: T1, human β-FXIIa (Homo sapiens, UniProt P00748)
T1 construct: human β-FXIIa (Molecular Innovations cat #); purchased Molecular Innovations HFXIIAB; host or cells: human blood
Experiment: FXIIa protease inhibition assay with fluorogenic substrate Boc-Gln-Gly-Arg-AMC
Assay type: biochemical
Description: In order to test the inhibitory activity of peptides without prior purification, we developed the following method. […] After solid-phase peptide synthesis, cleavage, and ether precipitation, the peptides were chemically cyclized and their Ki values were determined in a FXIIa activity assay using a fluorogenic substrate.
Protease inhibition assays
The inhibitory activity of peptides was determined by measuring the residual protease activity with a fluorogenic substrate. The assay was performed in buffer containing 10 mM Tris-Cl, pH […]
1% (v/v) DMSO in a volume of 150 µl. FXIIa activity was measured with the fluorogenic substrate Boc-Gln-Gly-Arg-AMC (Bachem) at a final concentration of 50 µM. Mouse α-FXIIa (Molecular Innovations cat # MFXIIA) and human β-FXIIa (Molecular Innovations cat # HFXIIAB) were used at final concentrations of 0.4 nM. The reaction was pipetted as follows: 50 µl of bicyclic peptide in assay buffer were added to 50 µl of FXIIa in assay buffer and incubated for 10 minutes at 25°C before 50 µl of 150 µM fluorogenic substrate in assay buffer were added to measure the residual protease activity with an Infinite M200Pro fluorescence plate reader (excitation at 368 nm, emission at 467 nm; Tecan) for a period of 30 minutes with a read every minute at 25°C. The Tecan software i-control (version 1.1) was used for data analysis. Stock solutions of 1 mM bicyclic peptide were prepared by either dissolving the unpurified cyclization reaction with water or by dissolving purified and lyophilized peptide in water. The bicyclic peptides were serially diluted two-fold using assay buffer. Sigmoidal curves were fitted to the data using the following dose response equation (1), wherein x = peptide concentration, y = % protease activity, and p = Hill slope. IC50 values were derived from the fitted curve.
The inhibition constants (Ki) were calculated according to the equation of Cheng and Prusoff, Ki = IC50/(1+([S]0/Km), wherein IC50 is the functional strength of the inhibitor, [S]0 is the total substrate concentration, and Km is the Michaelis-Menten constant. […]
the substrate Boc-Gln-Gly-Arg-AMC. […]

[1] = purified peptide without coumarin label, read-out: Ki human FXIIa

T1 sequence (P00748 373-615 limits assumed, other chains not shown): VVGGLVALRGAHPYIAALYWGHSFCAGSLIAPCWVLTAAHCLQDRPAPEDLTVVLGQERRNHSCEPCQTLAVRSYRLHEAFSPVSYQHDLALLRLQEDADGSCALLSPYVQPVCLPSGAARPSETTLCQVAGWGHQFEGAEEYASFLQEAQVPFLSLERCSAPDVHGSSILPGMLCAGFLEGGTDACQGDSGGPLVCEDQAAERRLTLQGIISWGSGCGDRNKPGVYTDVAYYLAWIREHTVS

- Residual activity of human FXIIa (inhibitor 0.0976562 nM, 97.66 pM): 91.4189%
- remaining activity at 97.66 pM (inhibitor 0.0976562 nM, read-out: Residual activity of human FXIIa): 93.2%
- Residual activity of human FXIIa (inhibitor 0.195312 nM, 0.000195312 µM): 81.1824%
- remaining activity at 0.000195312 µM (inhibitor 0.195312 nM, read-out: Residual activity of human FXIIa): 90.3%
- Residual activity of human FXIIa (inhibitor 0.390625 nM, 0.000390625 µM): 72.286%
- remaining activity at 0.000390625 µM (inhibitor 0.390625 nM, read-out: Residual activity of human FXIIa): 82.1%
- Residual activity of human FXIIa (inhibitor 0.78125 nM, 0.00078125 µM): 58.8964%
- remaining activity at 0.00078125 µM (inhibitor 0.78125 nM, read-out: Residual activity of human FXIIa): 69.4%
- Residual activity of human FXIIa (inhibitor 1.5625 nM, 0.0015625 µM): 43.9302%
- remaining activity at 0.0015625 µM (inhibitor 1.5625 nM, read-out: Residual activity of human FXIIa): 53.9%
- Residual activity of human FXIIa (inhibitor 3.125 nM, 0.003125 µM): 29.5158% and 36.4925%
- remaining activity at 0.003125 µM (inhibitor 3.125 nM, read-out: Residual activity of human FXIIa): 34.3%
- Residual activity of human FXIIa (inhibitor 6.25 nM, 0.00625 µM): 18.0743% and 21.4703%
- remaining activity at 0.00625 µM (inhibitor 6.25 nM, read-out: Residual activity of human FXIIa): 20.1%
- Residual activity of human FXIIa (inhibitor 12.5 nM, 0.0125 µM): 10.9718% and 11.488%
- remaining activity at 0.0125 µM (inhibitor 12.5 nM, read-out: Residual activity of human FXIIa): 10.6%
- remaining activity at […] (inhibitor 25 nM, read-out: Residual activity of human FXIIa): 4.82%
- Residual activity of human FXIIa (inhibitor 50 nM, 0.05 µM): 4.39% and 3.29%
- remaining activity at 0.05 µM (inhibitor 50 nM, read-out: Residual activity of human FXIIa): 2.6%
- Residual activity of human FXIIa (inhibitor 100 nM, 0.1 µM): 1.025% and 3.134% and 1.703%
- remaining activity at 0.2 µM (inhibitor 200 nM, read-out: Residual activity of human FXIIa): 0.731%
- remaining activity at 0.4 µM (inhibitor 400 nM, read-out: Residual activity of human FXIIa): 0.3%
- Ki [1]: 1.5 ± 0.1 nM
Structure (SMILES): CC(C)C[C@@H]1NC(=O)[C@H](CCC(N)=O)NC(=O)[C@H](CCCNC(=N)N)NC(=O)[C@@H]2CSCCC(=O)N3CN(CN(C3)C(=O)CCSC[C@H](NC(=O)[C@@H](N)CCCNC(=N)N)C(=O)N[C@@H](Cc3ccccc3)C(=O)N[C@@H](CCCNC(=N)N)C(=O)N[C@@H](CC(C)C)C(=O)N3CCC[C@H]3C(=O)N2)C(=O)CCSC[C@@H](C(=O)N[C@@H](CCCNC(=N)N)C(N)=O)NC(=O)C[C@H](CCCNC(=N)N)NC1=O [FXII700]

- Residual activity of human FXIIa (inhibitor 0.12207 nM, 0.00012207 µM): 86.6295% and 91.1755%
- remaining activity at 0.00012207 µM (inhibitor 0.12207 nM, read-out: Residual activity of human FXIIa): 94.2%
- Residual activity of human FXIIa (inhibitor 0.244141 nM, 0.000244141 µM): 82.4999% and 82.653%
- remaining activity at 0.000244141 µM (inhibitor 0.244141 nM, read-out: Residual activity of human FXIIa): 87%
- Residual activity of human FXIIa (inhibitor 0.488281 nM, 0.000488281 µM): 69.0437% and 70.79%
- remaining activity at 0.000488281 µM (inhibitor 0.488281 nM, read-out: Residual activity of human FXIIa): 70.3%
- Residual activity of human FXIIa (inhibitor 1.95312 nM, 0.00195312 µM): 33.1082% and 35.3323%
- remaining activity at 0.00195312 µM (inhibitor 1.95312 nM, read-out: Residual activity of human FXIIa): 31.8%
- Residual activity of human FXIIa (inhibitor 3.90625 nM, 0.00390625 µM): 19.4631% and 21.6747%
- remaining activity at 0.00390625 µM (inhibitor 3.90625 nM, read-out: Residual activity of human FXIIa): 16.9%
- Residual activity of human FXIIa (inhibitor 7.8125 nM, 0.0078125 µM): 10.6116% and 10.9279%
- remaining activity at 0.0078125 µM (inhibitor 7.8125 nM, read-out: Residual activity of human FXIIa): 9.32%
- Residual activity of human FXIIa (inhibitor 15.625 nM, 0.015625 µM): 6.273% and 6.117%
- remaining activity at 0.015625 µM (inhibitor 15.625 nM, read-out: Residual activity of human FXIIa): 6.19%
- Residual activity of human FXIIa (inhibitor 31.25 nM, 0.03125 µM): 3.754% and 3.106%
- remaining activity at 0.03125 µM (inhibitor 31.25 nM, read-out: Residual activity of human FXIIa): 2.96%
- Residual activity of human FXIIa (inhibitor 62.5 nM, 0.0625 µM): 2.455% and 1.836%
- remaining activity at 0.0625 µM (inhibitor 62.5 nM, read-out: Residual activity of human FXIIa): 1.51%
- Residual activity of human FXIIa (inhibitor 125 nM, 0.125 µM): 1.461% and 1.1009%
- remaining activity at 0.125 µM (inhibitor 125 nM, read-out: Residual activity of human FXIIa): 1.19%
- Residual activity of human FXIIa (inhibitor 0.976562 / 0.976563 nM, 0.000976563 µM): 50.5477% and 54.5303%
- remaining activity at 0.000976563 µM (inhibitor 0.976562 / 0.976563 nM, read-out: Residual activity of human FXIIa): 50.5%
- Ki [1]: 0.84 ± 0.03 nM
Structure (SMILES): CC(C)C[C@@H]1NC(=O)[C@H](CCC(N)=O)NC(=O)[C@H](CCCNC(=N)N)NC(=O)[C@@H]2CSCCC(=O)N3CN(CN(C3)C(=O)CCSC[C@H](NC(=O)[C@@H](N)CCCNC(=N)N)C(=O)N[C@@H](Cc3ccc(F)cc3)C(=O)N[C@@H](CCCNC(=N)N)C(=O)N[C@@H](CC(C)C)C(=O)N3CCC[C@H]3C(=O)N2)C(=O)CCSC[C@@H](C(=O)N[C@@H](CCCNC(=N)N)C(N)=O)NC(=O)[C@H](CCCNC(=N)N)NC1=O [FXII800]

- Ki (negative control peptide, read-out: Ki FXIIa): 39000 ± 14000 nM
Structure (SMILES): CC(C)C[C@@H]1NC(=O)[C@H](CCC(N)=O)NC(=O)[C@H](Cc2c[nH]cn2)NC(=O)[C@@H]2CSCCC(=O)N3CN(CN(C3)C(=O)CCSC[C@H](NC(=O)[C@@H](CO)NC(=O)[C@H](N)CCCNC(=N)N)C(=O)N[C@@H](Cc3ccccc3)C(=O)N[C@@H](C)C(=O)N[C@@H](CC(C)C)C(=O)N3CCC[C@H]3C(=O)N2)C(=O)CCSC[C@@H](C(N)=O)NC(=O)[C@H](CCCNC(=N)N)NC1=O [FXII901] (HELM PEPTIDE1{[dR].[dS].C.F.A.L.P.C.H.Q.L.R.C.[am]}|CHEM1{[O=C(CC[*:1])N1CN(C(=O)CC[*:2])CN(C(=O)CC[*:3])C1]}$PEPTIDE1,CHEM1,3:R3-1:R1|PEPTIDE1,CHEM1,8:R3-1:R2|PEPTIDE1,CHEM1,13:R3-1:R3$$$V2.0)
